# Assay results as given in ChEMBL document CHEMBL5137110, “Production of Multiple Talaroenamines from Penicillium malacosphaerulum via One-Pot/Two-Stage Precursor-Directed Biosynthesis” (J Nat Prod, 2022).
# Structures can show the parent of a compound that is named as a salt.
# Key:
# H69AR = test: Cytotoxicity against human H69AR cells assessed as reduction in cell viability by SRB assay; assay type: functional, cell-based
# MDA-MB-231 = test: Cytotoxicity against human MDA-MB-231 cells assessed as reduction in cell viability by SRB assay; assay type: functional, cell-based
# K562 = test: Cytotoxicity against human K562 cells assessed as reduction in cell viability by MTT assay; assay type: functional, cell-based
# L02 = test: Cytotoxicity against human L02 cells assessed as reduction in cell viability by SRB assay; assay type: functional, cell-based
# ASPC1 = test: Cytotoxicity against human ASPC1 cells assessed as reduction in cell viability by SRB assay; assay type: functional, cell-based
# Proteus = test: Antibacterial activity against Proteus species assessed as inhibition of bacterial growth incubated for 18 to 20 hrs by agar dilution method; assay type: functional; settings: time 18-20 hrs
# Bacillus cereus = test: Antibacterial activity against Bacillus cereus assessed as inhibition of bacterial growth incubated for 18 to 20 hrs by agar dilution method; assay type: functional; settings: time 18-20 hrs
# Escherichia coli = test: Antibacterial activity against Escherichia coli assessed as inhibition of bacterial growth incubated for 18 to 20 hrs by agar dilution method; assay type: functional; settings: time 18-20 hrs
MIC (Proteus) [µg/mL],MIC (Bacillus cereus) [µg/mL],MIC (Escherichia coli) [µg/mL],SMILES,IC50 (H69AR) [µM],IC50 (MDA-MB-231) [µM],IC50 (K562) [µM],IC50 (L02) [µM],IC50 (ASPC1) [µM]
–,–,–,CC1=CC(=O)[C@@](C)(O)C(=O)/C1=C\Nc1ccc(C(=O)O)cc1,9.6,> 30,8.5,16.1,> 30
16.3,16.3,16.3,CC1=CC(=O)[C@@](C)(O)C(=O)/C1=C\Nc1ccc(Cl)c(Cl)c1,–,–,–,–,–
–,–,–,CC1=CC(=O)[C@@](C)(O)C(=O)/C1=C\Nc1cccc(C(N)=O)c1,> 30,> 30,2.2,17,> 30
–,–,–,CC1=CC(=O)[C@@](C)(O)C(=O)/C1=C\Nc1ccc(F)cc1Br,> 30,> 30,2.8,20.9,> 30
–,–,–,COc1cccc2c1C(=O)c1c(O)c3c(c(O)c1C2=O)C[C@@](O)(C(=O)CO)C[C@@H]3O[C@H]1C[C@H](N)[C@H](O)[C@H](C)O1 [DOXORUBICIN HYDROCHLORIDE],15.1,0.3,–,0.2,–
